Assay [1] relates to Glucokinase known as hexokinase IV (human GK isoform 1, pancreas form and human GK isoform 2, liver form). As to the kind of experiment: Glucokinase enzymatic activity assay (G6PDH-coupled, NADH absorbance at 340 nm). Type of assay: biochemical. The note with it: 5 mM glucose, 1 mM ATP, 37 nM GK, 10 min at room temperature. In outline:
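His-tagged human GK isoform 1 (pancreas) or 2 (liver), E. coli-expressed and Ni-purified, 37 nM, with 5 mM glucose, 1 mM ATP, 1 mM NAD and G6PDH in 25 mM Hepes/KCl, 2 mM MgCl2, 1 mM DTT. Ran 10 min at room temperature, read as NADH at 340 nm. AC1.5 is the compound concentration giving 1.5-fold activity.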

The next assay deals with male C57BL/6 mice. As to the kind of experiment: Blood glucose lowering abilities after single oral administration in male C57BL/6 mouse. Type of assay: in vivo. Conditions: 30 mg/kg single oral dose, fed ad libitum. The method, then:
The glucokinase activators according to the present invention were orally administered in a single dose in the amount of 30 mg/kg body weight to male C57BL/6 mice for 24 h. The media were selected depending on their solubilities from distilled water, pH 1.2 HCl buffer solution, 0.5% methyl cellulose distilled water solution, 10% Gelucire/pH 1.2 HCl buffer solution (1/1). The glucokinase activators were dissolved in the selected media to the medium volume of 0.1 ml/10 g body weight on the basis of the body weight measured on the day of experiment.
Blood glucose was measured by cutting the tail vein before 1 h (time=−1) from the measurement of blood glucose, collecting blood from the tail vein at immediately before the administration of the glucokinase activator (time=0), and at 1, 2, 4, 8, 12, 24 h after administration, loading on the automatic glucometer (Accu-Chek® Active, Roche, USA), dropping 5 μl of the blood to a yellow pad of the Accu-Chek® Active glucose strip, and recording the measured value.
Mice involved in the experiment were divided into groups (n=10, in the case of media group n=4) on one day before the experiment so that each group has uniform average and standard deviation for blood glucose after 4 hour fasting. Mice were fed ad libitum.
The blood glucose lowering abilities in % of the representative compounds with respect to the 100% of media control were shown in the following Table 2.

23 compounds from US8309586B2, “Glucokinase activators and pharmaceutical compositions containing the same as an active ingredient” (LG Life Sciences Ltd., priority 2007, dated 2012) can be followed below.

Turning to `O=C(O)C[C@@H]1CSC(c2cc3cc(Oc4ccccc4)cc(NC4CCCC4)c3[nH]2)=N1` [Example 54, [(R)-2-(7-cyclopentylamino-5-phenoxy-1H-indol-2-yl)-4,5-dihydro-thiazol-4-yl]-acetic acid], the “AC1.5 (the compound concentration at which the enzymatic activity is increased by 1.5 times)” value in assay [1] is given as 18 nM. The “Hypoglycemic ability (% medium): blood glucose AUC for 24 h with respect to 100% of media control” value (“Hypoglycemic ability (% medium)” for short) in the assay on male C57BL/6 mice (medium: distilled water) came to 52%.

On to `O=C(O)C[C@@H]1CSC(c2cc3cc(F)cc(NC4CCCC4)c3[nH]2)=N1` [Example 37, [(R)-2-(7-cyclopentylamino-5-fluoro-1H-indol-2-yl)-4,5-dihydro-thiazol-4-yl]acetic acid], for which the “Hypoglycemic ability (% medium)” value in the assay with male C57BL/6 mice (medium: distilled water) is reported as 67%.

On to `O=C(O)CC[C@@H]1CSC(c2cc3cccc(NC4CCCC4)c3[nH]2)=N1` [Example 164, 3-[(R)-2-(7-cyclopentylamino-1H-indol-2-yl)-4,5-dihydro-thiazol-4-yl]-propionic acid], for which the “AC1.5 (the compound concentration at which the enzymatic activity is increased by 1.5 times)” value in assay [1] is 25 nM. Also, the “Hypoglycemic ability (% medium)” value in the assay with male C57BL/6 mice (medium: distilled water) was found to be 73%.

For `Cc1cc(NC2CCCC2)c2[nH]c(C3=N[C@H](CCC(=O)O)CS3)cc2c1` [Example 158, 3-[(R)-2-(7-cyclopentylamino-5-methyl-1H-indol-2-yl)-4,5-dihydro-thiazol-4-yl]-propionic acid], the “AC1.5 (the compound concentration at which the enzymatic activity is increased by 1.5 times)” value in assay [1] is recorded as 16 nM. Besides, in the assay on male C57BL/6 mice (medium: distilled water), the “Hypoglycemic ability (% medium)” value came to 66%.

On to `O=C(O)C[C@@H]1CSC(c2cc3cc(Br)cc(NC4CCCC4)c3[nH]2)=N1` [Example 33, [(R)-2-(5-bromo-7-cyclopentylamino-1H-indol-2-yl)-4,5-dihydro-thiazol-4-yl]acetic acid], for which the “Hypoglycemic ability (% medium)” value in the assay on male C57BL/6 mice (medium: distilled water) is on record as 81%.

In the case of `O=C(O)CC[C@@H]1CSC(c2cc3cc(Oc4ccccc4)cc(NC4CCCC4)c3[nH]2)=N1` [Example 159, 3-[(R)-2-(7-cyclopentylamino-5-phenoxy-1H-indol-2-yl)-4,5-dihydro-thiazol-4-yl]-propionic acid], the “AC1.5 (the compound concentration at which the enzymatic activity is increased by 1.5 times)” value in assay [1] came out at 17 nM. The “Hypoglycemic ability (% medium)” value with male C57BL/6 mice (medium: distilled water) stood at 63%.

In the case of `O=C(O)C[C@@H]1CSC(c2cc3cccc(NC4CCCC4)c3[nH]2)=N1` [Example 42, [(R)-2-(7-cyclopentylamino-1H-indol-2-yl)-4,5-dihydro-thiazol-4-yl]acetic acid], the “Hypoglycemic ability (% medium)” value with male C57BL/6 mice (medium: distilled water) was determined as 57%.

Consider `Cc1cc(NC2CCCC2)c2[nH]c(C3=N[C@H](CC(=O)O)CS3)cc2c1` [Example 61, [(R)-2-(7-cyclopentylamino-5-methyl-1H-indol-2-yl)-4,5-dihydro-thiazol-4-yl]-acetic acid], for which the “AC1.5 (the compound concentration at which the enzymatic activity is increased by 1.5 times)” value in assay [1] came to 11 nM. In the assay with male C57BL/6 mice (medium: distilled water), the “Hypoglycemic ability (% medium)” value is on record as 54%.

Consider `O=C(CO)N1CCN(CC[C@@H]2CSC(c3cc4cc(Cl)cc(NC5CCCC5)c4[nH]3)=N2)CC1` [Example 99, 1-(4-{2-[(R)-2-(5-chloro-7-cyclopentylamino-1H-indol-2-yl)-4,5-dihydro-thiazol-4-yl]-ethyl}-piperazin-1-yl)-2-hydroxy-ethanone], for which the “AC1.5 (the compound concentration at which the enzymatic activity is increased by 1.5 times)” value in assay [1] is recorded as 5 nM. The “Hypoglycemic ability (% medium)” value in the assay on male C57BL/6 mice (medium: distilled water) is 72%.

Regarding `O=C(O)C[C@@H]1CSC(c2cc3cc(Cl)cc(NC4CCCC4)c3[nH]2)=N1` [Example 27, [(R)-2-(5-chloro-7-cyclopentylamino-1H-indol-2-yl)-4,5-dihydro-thiazol-4-yl]acetic acid], in assay [1], the “AC1.5 (the compound concentration at which the enzymatic activity is increased by 1.5 times)” value stood at 4 nM. In the assay with male C57BL/6 mice (medium: distilled water), the “Hypoglycemic ability (% medium)” value is on record as 75%.

Take `CCOc1cc(NC2CCCC2)c2[nH]c(C3=N[C@H](CCC(=O)O)CS3)cc2c1` [Example 167, 3-[(R)-2-(7-cyclopentylamino-5-ethoxy-1H-indol-2-yl)-4,5-dihydro-thiazol-4-yl]-propionic acid]: in assay [1], the “AC1.5 (the compound concentration at which the enzymatic activity is increased by 1.5 times)” value worked out at 28 nM. For the same compound, the “Hypoglycemic ability (% medium)” value in the assay with male C57BL/6 mice (medium: distilled water) was 64%.

In the case of `Clc1cc(NC2CCCC2)c2[nH]c(C3=N[C@H](CCN4CCNCC4)CS3)cc2c1` [Example 96, {5-chloro-2-[(R)-4-(2-piperazin-1-yl-ethyl)-4,5-dihydro-thiazol-2-yl]-1H-indol-7-yl}-cyclopentyl-amine], the “AC1.5 (the compound concentration at which the enzymatic activity is increased by 1.5 times)” value in assay [1] came out at 5 nM. Besides, the “Hypoglycemic ability (% medium)” value with male C57BL/6 mice (medium: distilled water) is reported as 81%.

Consider `CCOc1cc(NC2CCCC2)c2[nH]c(C3=N[C@H](CC(=O)O)CS3)cc2c1` [Example 52, [(R)-2-(7-cyclopentylamino-5-ethoxy-1H-indol-2-yl)-4,5-dihydro-thiazol-4-yl]acetic acid], for which the “AC1.5 (the compound concentration at which the enzymatic activity is increased by 1.5 times)” value in assay [1] is 20 nM. Further, the “Hypoglycemic ability (% medium)” value in the assay with male C57BL/6 mice (medium: distilled water) turned out to be 62%.

Take `CCOC(=O)C[C@@H]1CSC(c2cc3cc(F)cc(NC4CCCC4)c3[nH]2)=N1` [Example 38, [(R)-2-(7-cyclopentylamino-5-fluoro-1H-indol-2-yl)-4,5-dihydro-thiazol-4-yl]acetic acid ethyl ester]: the “AC1.5 (the compound concentration at which the enzymatic activity is increased by 1.5 times)” value in assay [1] worked out at 18 nM. Also, the “Hypoglycemic ability (% medium)” value in the assay with male C57BL/6 mice (medium: 0.5% methyl cellulose distilled water solution) came to 71%.

With `O=C(O)C[C@@H]1CSC(c2cc3cccc(Oc4ccccc4)c3[nH]2)=N1` [Example 174, [(R)-2-(7-phenoxy-1H-indol-2-yl)-4,5-dihydro-thiazol-4-yl]-acetic acid], the “Hypoglycemic ability (% medium)” value with male C57BL/6 mice (medium: distilled water) amounted to 51%.

With `OCCC[C@@H]1CSC(c2cc3cc(Cl)cc(NC4CCOCC4)c3[nH]2)=N1` [Example 152, 3-{(R)-2-[5-chloro-7-(tetrahydro-pyran-4-ylamino)-1H-indol-2-yl]-4,5-dihydro-thiazol-4-yl}-propan-1-ol], in assay [1], the “AC1.5 (the compound concentration at which the enzymatic activity is increased by 1.5 times)” value was found to be 14 nM.

Regarding `Clc1cc(NC2CCCC2)c2[nH]c(C3=N[C@H](CCCN4CCOCC4)CS3)cc2c1` [Example 156, {5-chloro-2-[(R)-4-(3-morpholin-4-yl-propyl)-4,5-dihydro-thiazol-2-yl]-1H-indol-7-yl}-cyclopentyl-amine], the “AC1.5 (the compound concentration at which the enzymatic activity is increased by 1.5 times)” value in assay [1] was 22 nM.

With `CCOC(=O)COC[C@@H]1CSC(c2cc3cc(F)cc(NC4CCCC4)c3[nH]2)=N1` [Example 170, [(R)-2-(7-cyclopentylamino-5-fluoro-1H-indol-2-yl)-4,5-dihydro-thiazol-4-ylmethoxy]-acetic acid ethyl ester], the “AC1.5 (the compound concentration at which the enzymatic activity is increased by 1.5 times)” value in assay [1] was 12 nM.

`O=C(O)C1CCCN(CC[C@@H]2CSC(c3cc4cc(Cl)cc(NC5CCOCC5)c4[nH]3)=N2)C1` (stereo partly drawn) [Example 112, 1-(2-{(R)-2-[5-chloro-7-(tetrahydro-pyran-4-ylamino)-1H-indol-2-yl]-4,5-dihydro-thiazol-4-yl}-ethyl)-piperidine-3-carboxylic acid]: in assay [1], the “AC1.5 (the compound concentration at which the enzymatic activity is increased by 1.5 times)” value is on record as 81 nM.

For `CN(C)CC[C@@H]1CSC(c2cc3cccc(Oc4ccccc4)c3[nH]2)=N1` [Example 178, dimethyl-{2-[(R)-2-(7-phenoxy-1H-indol-2-yl)-4,5-dihydro-thiazol-4-yl]ethyl}-amine], the “AC1.5 (the compound concentration at which the enzymatic activity is increased by 1.5 times)” value in assay [1] is given as 21 nM.

In the case of `O=C(C[C@@H]1CSC(c2cc3cc(Cl)cc(NC4CCOCC4)c3[nH]2)=N1)N1CCOCC1` [Example 83, 2-{(R)-2-[5-chloro-7-(tetrahydro-pyran-4-ylamino)-1H-indol-2-yl]-4,5-dihydro-thiazol-4-yl}-1-morpholin-4-yl-ethanone], the “AC1.5 (the compound concentration at which the enzymatic activity is increased by 1.5 times)” value in assay [1] turned out to be 45 nM.

Consider `CCCOc1cc(NC2CCCC2)c2[nH]c(C3=N[C@H](CC(=O)O)CS3)cc2c1` [Example 53, [(R)-2-(7-cyclopentylamino-5-propoxy-1H-indol-2-yl)-4,5-dihydro-thiazol-4-yl]-acetic acid], for which the “AC1.5 (the compound concentration at which the enzymatic activity is increased by 1.5 times)” value in assay [1] worked out at 97 nM.

As to `CCOC(=O)CC[C@@H]1CSC(c2cc3cc(F)cc(NC4CCCC4)c3[nH]2)=N1` [Example 160, 3-[(R)-2-(7-cyclopentylamino-5-fluoro-1H-indol-2-yl)-4,5-dihydro-thiazol-4-yl]-propionic acid ethyl ester], the “AC1.5 (the compound concentration at which the enzymatic activity is increased by 1.5 times)” value in assay [1] is given as 12 nM.
